Consider 56 compounds from patent US11612604B2, “Methods of treating cancer with PLK4 inhibitors” (LUDWIG INSTITUTE FOR CANCER RESEARCH LTD, priority 2017, dated 2023).

SMILES strings stand for the structures.

Usually IC50 stands for the concentration that gives 50% inhibition. A lower IC50 goes with inhibition by little substance.

For the assay, the target named is T1, PLK4 (Homo sapiens, UniProt O00444).
T1 sequence (O00444 1-970): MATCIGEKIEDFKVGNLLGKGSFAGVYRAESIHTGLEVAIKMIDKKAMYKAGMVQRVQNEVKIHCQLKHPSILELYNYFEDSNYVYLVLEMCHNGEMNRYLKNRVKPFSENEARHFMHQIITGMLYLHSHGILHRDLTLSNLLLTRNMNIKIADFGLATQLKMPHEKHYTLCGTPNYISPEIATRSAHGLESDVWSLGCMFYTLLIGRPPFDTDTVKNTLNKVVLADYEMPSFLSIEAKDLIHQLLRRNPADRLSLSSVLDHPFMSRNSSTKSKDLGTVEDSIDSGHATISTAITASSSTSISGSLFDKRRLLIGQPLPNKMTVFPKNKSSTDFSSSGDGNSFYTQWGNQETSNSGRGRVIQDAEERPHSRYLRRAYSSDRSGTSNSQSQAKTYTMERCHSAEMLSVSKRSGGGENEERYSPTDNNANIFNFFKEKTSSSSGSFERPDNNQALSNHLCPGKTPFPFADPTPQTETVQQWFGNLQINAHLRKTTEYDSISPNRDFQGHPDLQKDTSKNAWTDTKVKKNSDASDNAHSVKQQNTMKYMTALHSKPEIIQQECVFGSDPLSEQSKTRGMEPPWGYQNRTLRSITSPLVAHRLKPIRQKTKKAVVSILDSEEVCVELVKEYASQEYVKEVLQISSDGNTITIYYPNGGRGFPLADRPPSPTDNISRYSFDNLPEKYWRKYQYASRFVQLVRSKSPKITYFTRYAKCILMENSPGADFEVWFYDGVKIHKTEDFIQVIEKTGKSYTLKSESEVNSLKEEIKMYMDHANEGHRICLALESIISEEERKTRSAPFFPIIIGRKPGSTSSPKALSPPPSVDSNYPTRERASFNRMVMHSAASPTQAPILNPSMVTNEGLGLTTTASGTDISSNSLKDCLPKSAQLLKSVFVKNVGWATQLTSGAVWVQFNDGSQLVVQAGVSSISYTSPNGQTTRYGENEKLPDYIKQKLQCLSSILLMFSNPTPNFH
The assay is described as follows: Activity (IC50) of the Table 1 compounds as PLK4 inhibitors. Format: biochemical. The conditions noted are these: Table 1, IC50 class.
Take `Cc1cc(Nc2nc(Sc3ccc(NC(=O)C4CC4)cc3)nc(N3CCN(C)CC3)c2C)n[nH]1`: the IC50 is < 100 nM.

For the compound `CNc1nc(Sc2ccc(NC(=O)C3CC3)cc2)nc(Nc2cc(C)[nH]n2)c1C`, the IC50 was < 100 nM.

Turning to `CCNc1nc(Sc2ccc(NC(=O)C3CC3)cc2)nc(Nc2cc(C)[nH]n2)c1C`, the IC50 was < 100 nM.

`CCCC(=O)Nc1ccc(Sc2nc(Nc3cc(C)[nH]n3)c(C)c(N3CCN(C)CC3)n2)cc1`: the IC50 is < 100 nM.

Regarding `Cc1cc(Nc2nc(Sc3ccc(NC(=O)C4CC4)cc3)nc(NC(C)C)c2C)n[nH]1`, the IC50 is < 100 nM.

Turning to `CCN(C)c1nc(Sc2ccc(NC(C)=O)cc2)nc(Nc2cc(C)[nH]n2)c1C`, the IC50 was < 100 nM.

For `COc1c(Nc2cc(C)[nH]n2)nc(Sc2ccc(NC(C)=O)cc2)nc1N1CCC(CCN2CCOCC2)CC1`, the concentration for half-maximal inhibition (IC50) was < 100 nM.

As for `COc1c(Nc2cc(C)[nH]n2)nc(Sc2ccc(NC(C)=O)cc2)nc1NC1CCNCC1`, the half-inhibitory concentration (IC50) is < 100 nM.

Consider `CCc1cc(Nc2nc(SC)nc(N3CCN(CCN(C)C)CC3)c2OC)n[nH]1`, for which the IC50 is < 100 nM.

As to `CCc1cc(Nc2nc(SC)nc(N3CCN(CCN(C)C)CC3)c2C)n[nH]1`, the IC50 was < 100 nM.

In the case of `COc1c(Nc2cc(C)[nH]n2)nc(Sc2ccc(NC(C)=O)nc2)nc1N1CCOCC1`, the half-maximal inhibitory concentration (IC50) was < 100 nM.

In the case of `COc1c(Nc2cc(C)[nH]n2)nc(Sc2ccc(S(=O)(=O)C(C)(C)c3ncc[nH]3)cc2)nc1N1CCN(CCN(C)C)CC1`, the IC50 is < 100 nM.

With `COc1c(Nc2cc(C)[nH]n2)nc(Sc2ccc(S(=O)(=O)C(C)(C)c3cccc([N+](=O)[O-])c3F)cc2F)nc1N1CCC(C(N)=O)CC1`, the IC50 was < 100 nM.

Turning to `COc1c(Nc2cc(C)[nH]n2)nc(Sc2ccc(S(=O)(=O)C(C)(C)c3cccc([N+](=O)[O-])c3F)cc2F)nc1N1CCN(C(C)=O)CC1`, the IC50 is < 100 nM.

For `COc1c(Nc2cc(C)[nH]n2)nc(Sc2ccc(S(=O)(=O)C(C)(C)c3cccc([N+](=O)[O-])c3F)cc2F)nc1N1CCC(C(=O)N(C)C)CC1`, the half-maximal inhibitory concentration (IC50) was < 100 nM.

In the case of `COc1c(Nc2cc(C)[nH]n2)nc(Sc2ccc(S(=O)(=O)C(C)(C)c3c(F)c(F)cc(F)c3F)cc2F)nc1N1CCC(CCNC(C)=O)CC1`, the IC50 is < 100 nM.

For the compound `COc1c(Nc2cc(C)[nH]n2)nc(Sc2ccc(S(=O)(=O)C(C)(C)c3c(F)c(F)cc(F)c3F)cc2F)nc1N1CCC(CCN)CC1`, the IC50 is < 100 nM.

Take `COc1c(Nc2cc(C)[nH]n2)nc(Sc2ccc(S(=O)(=O)C3(c4cccc([N+](=O)[O-])c4F)CC3)cc2F)nc1N1CCN(CCNC(C)=O)CC1`: the IC50 is < 100 nM.

For `COc1c(Nc2cc(C)[nH]n2)nc(Sc2ccc(S(=O)(=O)C(C)(C)c3c(F)c(F)cc(F)c3F)cc2F)nc1N1CCN(C(C)=O)CC1`, the IC50 is < 100 nM.

With `COc1c(Nc2cc(C)[nH]n2)nc(Sc2ccc(S(=O)(=O)Cc3cccc([N+](=O)[O-])c3F)cc2F)nc1N1CCC(NC(C)=O)CC1`, the half-inhibitory concentration (IC50) is < 100 nM.

Turning to `COc1c(Nc2cc(C)[nH]n2)nc(Sc2ccc(S(=O)(=O)C3(c4cccc([N+](=O)[O-])c4F)CC3)cc2F)nc1N1CCC(CN(C)C)CC1`, the half-inhibitory concentration (IC50) is < 100 nM.

Turning to `COc1c(Nc2cc(C)[nH]n2)nc(Sc2ccc(S(=O)(=O)C3(c4cccc([N+](=O)[O-])c4F)CC3)cc2F)nc1N1CCC(C(N)=O)CC1`, the IC50 is < 100 nM.

Consider `COc1c(Nc2cc(C)[nH]n2)nc(Sc2ccc(S(=O)(=O)C(C)(C)c3c(F)c(F)cc(F)c3F)cc2F)nc1N1CCC(N)C1` (centres unmarked), for which the IC50 was < 100 nM.

Regarding `COc1c(Nc2cc(C)[nH]n2)nc(Sc2ccc(S(=O)(=O)C(C)(C)c3c(F)c(F)cc(F)c3F)cc2F)nc1N1CCC(N)CC1`, the IC50 is < 100 nM.

Consider `COc1c(Nc2cc(C)[nH]n2)nc(Sc2ccc(S(=O)(=O)C(C)(C)c3cccc([N+](=O)[O-])c3F)cc2F)nc1N1CCC(N)C1` (centres unmarked), for which the IC50 is < 100 nM.

With `COc1c(Nc2cc(C)[nH]n2)nc(Sc2ccc(S(=O)(=O)Cc3cccc([N+](=O)[O-])c3F)cc2F)nc1N1CCC(CC(N)=O)CC1`, the IC50 was < 100 nM.

Take `COc1c(Nc2cc(C)[nH]n2)nc(Sc2ccc(S(=O)(=O)Cc3cccc([N+](=O)[O-])c3F)cc2F)nc1N1CCC(CCNC(C)=O)CC1`: the IC50 is < 100 nM.

Turning to `COc1c(Nc2cc(C)[nH]n2)nc(Sc2ccc(S(=O)(=O)C3(c4c(F)c(F)cc(F)c4F)CC3)cc2F)nc1N1CCOCC1`, the IC50 was < 100 nM.

`COc1c(Nc2cc(C)[nH]n2)nc(Sc2ccc(S(=O)(=O)C(C)(C)c3cccc([N+](=O)[O-])c3F)cc2F)nc1N1CCC(NC(=O)C(F)(F)F)CC1`: the IC50 is < 100 nM.

Turning to `COc1c(Nc2cc(C)[nH]n2)nc(Sc2ccc(S(=O)(=O)C(C)(C)c3c(F)c(F)cc(F)c3F)cc2F)nc1N1CCC(CC(N)=O)CC1`, the half-inhibitory concentration (IC50) was < 100 nM.

For `COc1c(Nc2cc(C)[nH]n2)nc(Sc2ccc(S(=O)(=O)C(C)(C)c3c(F)c(F)cc(F)c3F)cc2F)nc1N1CCC(CN)CC1`, the IC50 is < 100 nM.

Consider `COc1c(Nc2cc(C)[nH]n2)nc(Sc2ccc(S(=O)(=O)C3(c4cccc([N+](=O)[O-])c4F)CC3)cc2F)nc1N1CCC(CCN(C)C)CC1`, for which the IC50 is < 100 nM.

Consider `COc1c(Nc2cc(C)[nH]n2)nc(Sc2ccc(S(=O)(=O)C3(c4cccc([N+](=O)[O-])c4F)CC3)cc2F)nc1N1CCOCC1`, for which the IC50 was < 100 nM.

Take `COc1c(Nc2cc(C)[nH]n2)nc(Sc2ccc(S(=O)(=O)C3(c4cccc([N+](=O)[O-])c4F)CC3)cc2F)nc1N1CCN(CCN(C)C)CC1`: the IC50 is < 100 nM.

On to `COc1c(Nc2cc(C)[nH]n2)nc(Sc2ccc(S(=O)(=O)C3(c4cccc([N+](=O)[O-])c4F)CC3)cc2F)nc1N1CCC(CC(N)=O)CC1`, for which the IC50 was < 100 nM.

`COc1c(Nc2cc(C)[nH]n2)nc(Sc2ccc(S(=O)(=O)C3(c4cccc([N+](=O)[O-])c4F)CC3)cc2F)nc1N1CCC(NC(C)=O)CC1`: the IC50 was < 100 nM.

On to `COc1c(Nc2cc(C)[nH]n2)nc(Sc2ccc(S(=O)(=O)C(C)(C)c3c(F)c(F)cc(F)c3F)cc2F)nc1N1CCNCC1`, for which the concentration for half-maximal inhibition (IC50) was < 100 nM.

In the case of `COc1c(Nc2cc(C)[nH]n2)nc(Sc2ccc(S(=O)(=O)C3(c4cccc([N+](=O)[O-])c4F)CC3)cc2F)nc1N1CCC(NC(=O)C(F)(F)F)CC1`, the IC50 was < 100 nM.

In the case of `COc1c(Nc2cc(C)[nH]n2)nc(Sc2ccc(S(=O)(=O)C3(c4cccc([N+](=O)[O-])c4F)CC3)cc2F)nc1N1CCC(C(=O)N(C)C)CC1`, the IC50 is < 100 nM.

For `COc1c(Nc2cc(C)[nH]n2)nc(Sc2ccc(S(=O)(=O)C3(c4cccc([N+](=O)[O-])c4F)CC3)cc2F)nc1N1CCNCC1`, the IC50 was < 100 nM.

Take `COc1c(Nc2cc(C)[nH]n2)nc(Sc2ccc(S(=O)(=O)C3(c4cccc([N+](=O)[O-])c4F)CC3)cc2F)nc1N1CCC(N)CC1`: the concentration for half-maximal inhibition (IC50) is < 100 nM.

`COc1c(Nc2cc(C)[nH]n2)nc(Sc2ccc(S(=O)(=O)C3(c4cccc([N+](=O)[O-])c4F)CC3)cc2F)nc1N1CCC(CN)CC1`: the IC50 was < 100 nM.

For the compound `COc1c(Nc2cc(C)[nH]n2)nc(Sc2ccc(S(=O)(=O)C(C)(C)c3cccc([N+](=O)[O-])c3F)cc2F)nc1N1CCC(CCNC(=O)C(F)(F)F)CC1`, the IC50 was < 100 nM.

With `COc1c(Nc2cc(C)[nH]n2)nc(Sc2cccc(NC(C)=O)c2)nc1N1CCN(CCN(C)C)CC1`, the IC50 is < 100 nM.

`COc1c(Nc2cc(C)[nH]n2)nc(Sc2cccc(NC(C)=O)c2)nc1N1CCOCC1`: the IC50 is < 100 nM.

As for `COc1c(Nc2cc(C)[nH]n2)nc(Sc2ccc(NC(C)=O)cc2)nc1N1CCN(CC(=O)N2CCOCC2)CC1`, the IC50 is < 100 nM.

Turning to `COc1c(Nc2cc(C)[nH]n2)nc(Sc2ccc(NC(C)=O)cc2)nc1N1CCN(CC(=O)C2CCCCC2)CC1`, the half-inhibitory concentration (IC50) is < 100 nM.

As for `Cc1cc(Nc2nc(Sc3ccc([N+](=O)[O-])cc3)nc3c2CCC32CCN(C(=O)C(C)(C)C)CC2)n[nH]1`, the IC50 was < 100 nM.

For the compound `Cc1cc(Nc2nc(Sc3ccc([N+](=O)[O-])cc3)nc3c2CCC32CCNCC2)n[nH]1`, the IC50 lay within 100 to 1000 nM.

On to `CC(=O)Nc1ccc(Sc2nc(Nc3cc(C)[nH]n3)c3c(n2)C2(CC3)CCN(C(=O)C(C)(C)C)CC2)cc1`, for which the IC50 was < 100 nM.

For the compound `COc1c(Nc2cc(C)[nH]n2)nc(Sc2ccc([N+](=O)[O-])cc2)nc1N1CCN(CCN(C)C)CC1`, the IC50 was < 100 nM.

Turning to `COc1c(Nc2cc(C)[nH]n2)nc(Sc2ccc(NC(C)=O)cc2)nc1C1=CCNCC1`, the IC50 was < 100 nM.

On to `COc1c(Nc2cc(C)[nH]n2)nc(Sc2ccc(NC(C)=O)cc2)nc1N1CCN(CCN(C)C)C(C)C1` (centres unmarked), for which the IC50 was < 100 nM.

As for `COc1c(Nc2cc(C)[nH]n2)nc(Sc2ccc(NC(C)=O)cc2)nc1C1=CCN(CC(=O)N(C)C)CC1`, the half-maximal inhibitory concentration (IC50) is < 100 nM.

Consider `COc1c(Nc2cc(C)[nH]n2)nc(Sc2ccc(NC(C)=O)cc2)nc1C1=CCN(CCN(C)C)CC1`, for which the IC50 is < 100 nM.

For the compound `COc1c(Nc2cc(C)[nH]n2)nc(Sc2ccc(NC(C)=O)cc2)nc1N1CCN(CCN(C)C)CC1C` (centres unmarked), the 50% inhibitory concentration (IC50) is < 100 nM.
